# Results as given in BindingDB's records for doi:10.1021/jm051222g (Uppsala University, 2006).
# Biological target: Type-2 angiotensin II receptor (Sus scrofa)
# Assay: Displacement of [125I]Ang2 from AT2 receptor in pig uterus myometrium
row,SMILES,Ki
1,"CC[C@H](C)[C@@H]1Nc2c(Cc3ccc(O)cc3)cc(NC(=O)[C@H](CCCN=C(N)N)NC(=O)[C@@H](N)CC(=O)O)cc2CN(CC(=O)N[C@@H](Cc2cnc[nH]2)C(=O)N2CCC[C@H]2C(=O)N[C@@H](Cc2ccccc2)C(=O)O)C1=O [(3S)-3-amino-3-{[(1S)-1-{[(2S)-2-[(2S)-butan-2-yl]-4-({[(2S)-1-[(2S)-2-{[(1S)-1-carboxy-2-phenylethyl]carbamoyl}pyrrolidin-1-yl]-3-(1H-imidazol-4-yl)-1-oxopropan-2-yl]carbamoyl}methyl)-9-[(4-hydroxyphenyl)methyl]-3-oxo-2,3,4,5-tetrahydro-1H-1,4-benzodiazepin-7-yl]carbamoyl}-4-[(diaminomethylidene)amino]butyl]carbamoyl}propanoic acid]",4.7 nM
2,"CC[C@H](C)[C@@H]1Nc2c(Cc3ccc(O)cc3)cc(NC(=O)[C@H](CCCN=C(N)N)NC(=O)[C@@H](N)CC(=O)O)cc2CN(CC(=O)N2CCC[C@H]2C(=O)N[C@@H](Cc2ccccc2)C(=O)O)C1=O [(3S)-3-amino-3-{[(1S)-1-{[(2S)-2-[(2S)-butan-2-yl]-4-{2-[(2S)-2-{[(1S)-1-carboxy-2-phenylethyl]carbamoyl}pyrrolidin-1-yl]-2-oxoethyl}-9-[(4-hydroxyphenyl)methyl]-3-oxo-2,3,4,5-tetrahydro-1H-1,4-benzodiazepin-7-yl]carbamoyl}-4-[(diaminomethylidene)amino]butyl]carbamoyl}propanoic acid]",53.1 nM
